Laboratory results taken from patent US5329002A, “Antibacterial cephalosporin compounds” (Hoffmann-La Roche Inc., priority 1990, dated 1994).
Where a name gives a salt, the structure may show the parent alone. Read-outs that look alike come from different tables or passages of the source.

Experiments:
Assay type in all cases: cell-based
E. coli ATCC 25922 = assay: In vitro MIC, Broth Dilution Method, E. coli ATCC 25922; conditions: Escherichia coli
Text: (§1) The in vitro activity of the compounds of the present invention as measured by the Minimum Inhibitory Concentration (MIC) in micrograms/ml utilizing the Broth Dilution Method against a variety of Gram-positive and Gram-negative organisms, is as follows:
(§2) Concentration (MIC) in micrograms/ml utilizing the Broth Dilution Method against a variety of Gram-positive and Gram-negative organisms, is as follows:
(§3) In Vitro MIC (μg/ml), Broth Dilution Method

E. coli TEM 1 = assay: microbe, parasite or virus in culture; conditions: Escherichia coli, TEM1, read-out: In Vitro MIC
Text: as §1, §2, §3

E. cloacae 5699 = assay: In vitro MIC, Broth Dilution Method, E. cloacae 5699
Text: as §1, §2, §3

E. cloacae P99 = assay: In vitro MIC, Broth Dilution Method, E. cloacae P99; conditions: Enterobacter cloacae, P99, read-out: In Vitro MIC
Text: as §1, §2, §3

S. marcescens 1071 = assay: In vitro MIC, Broth Dilution Method, S. marcescens 1071
P. aeruginosa 8710 = assay: In vitro MIC, Broth Dilution Method, P. aeruginosa 8710; conditions: Pseudomonas aeruginosa
Text: as §1, §2, §3

P. aeruginosa 18 S/H = assay: In vitro MIC, Broth Dilution Method, P. aeruginosa 18 S/H; conditions: Pseudomonas aeruginosa
Text: as §1, §2, §3

E. faecalis ATCC 29212 = assay: In vitro MIC, Broth Dilution Method, E. faecalis ATCC 29212; conditions: Enterococcus faecalis, ATCC29212
Text: as §1, §2, §3

S. pneumoniae 6301 = assay: In vitro MIC, Broth Dilution Method, S. pneumoniae 6301
Text: as §1, §2, §3

S. aureus 1059B = assay: In vitro MIC, Broth Dilution Method, S. aureus 1059B; conditions: Staphylococcus aureus
S. aureus 95 = assay: In vitro MIC, Broth Dilution Method, S. aureus 95
Text: as §1, §2, §3

S. aureus ATCC 29213 = assay: In vitro MIC, Broth Dilution Method, S. aureus ATCC 29213; conditions: Staphylococcus aureus
[1] = ATCC25922, read-out: In Vitro MIC
[2] = Enterobacter cloacae, Broth Dilution Method, E. cloacae 5699, read-out: In Vitro MIC
[3] = Serratia marcescens, Broth Dilution Method, S. marcescens 1071, read-out: In Vitro MIC
[4] = Streptococcus pneumoniae, 6301, read-out: In Vitro MIC
[5] = Staphylococcus aureus, Broth Dilution Method, S. aureus 95, read-out: In Vitro MIC
[6] = ATCC29213, Broth Dilution Method, S. aureus ATCC 29213, read-out: In Vitro MIC
[7] = Enterobacter cloacae, 5699, read-out: In Vitro MIC
[8] = Streptococcus pneumoniae, Broth Dilution Method, S. pneumoniae 6301, read-out: In Vitro MIC
[9] = Staphylococcus aureus, 95, read-out: In Vitro MIC

SMILES | MIC (E. coli ATCC 25922; [1]) | MIC (E. coli TEM 1) | MIC (E. cloacae 5699; [2]) | MIC (E. cloacae P99) | MIC (S. marcescens 1071; [3]) | MIC (P. aeruginosa 8710) | MIC (P. aeruginosa 18 S/H) | MIC (E. faecalis ATCC 29212) | MIC (S. pneumoniae 6301; [4]) | MIC (S. aureus 1059B) | MIC (S. aureus 95; [5]) | MIC (S. aureus ATCC 29213; [6]) | MIC (E. cloacae 5699; [7]) | MIC (S. pneumoniae 6301; [8]) | MIC (S. aureus 95; [9]) | MIC (E. coli ATCC 25922; ATCC25922, Broth Dilution Method, E. coli ATCC 25922, read-out: In Vitro MIC) | MIC (S. marcescens 1071; Serratia marcescens, 1071, read-out: In Vitro MIC) | MIC (S. aureus ATCC 29213; ATCC29213, read-out: In Vitro MIC)
CO/N=C(\C(=O)N[C@@H]1C(=O)N2C(C(=O)O)=C(C[N+]3(C)CCN(c4c(F)cc5c(=O)c(C(=O)O)cn(CCF)c5c4F)CC3)CS[C@H]12)c1csc(N)n1 [Compound A, [6R-[6α,7β(Z)]]-1-[7-[[[(2-amino-4-thiazolyl)(methoxyimino)acetyl]amino]-2-carboxy-8-oxo-5-thia-1-azabicyclo[4.2.0]oct-2-en-3-yl]methyl]-4-[3-carboxy-6,8-difluoro-1-(2-fluoroethyl)-1,4-dihydro-4-oxo-7-quinolinyl]-1-methylpiperazinium iodide] | 0.25 mg/L | 0.25 mg/L | 0.5 mg/L | 0.5 mg/L | 0.5 mg/L | 8 mg/L | 8 mg/L | 64 mg/L | 0.063 mg/L | 2 mg/L | 4 mg/L | 4 mg/L | – | – | – | – | – | –
C[N+]1(CC2=C(C(=O)O)N3C(=O)[C@@H](NC(=O)COc4ccccc4)[C@H]3SC2)CCN(c2c(F)cc3c(=O)c(C(=O)O)cn(CCF)c3c2F)CC1.[I-] [Compound B, (6R-trans)-4-[3-carboxy-1-(2-fluoroethyl)-6,8-difluoro-1,4-dihydro-4-oxoquinolin-7-yl]-1-[[2-carboxy-8-oxo-7-[(phenoxyacetyl)amino]-5-thia-1-azabicyclo-[4.2.0]oct-2-en-3-yl]methyl]-1-methyl-piperazinium iodide] | 0.5 mg/L | 0.5 mg/L | – | 0.5 mg/L | – | 8 mg/L | 4 mg/L | 32 mg/L | – | – | – | – | 0.5 mg/L | 0.25 mg/L | 1 mg/L | – | – | –
C[N+]1(CC2=C(C(=O)O)N3C(=O)[C@@H](NC=O)[C@H]3SC2)CCN(c2c(F)cc3c(=O)c(C(=O)O)cn(CCF)c3c2F)CC1 [Compound E, trifluoroacetate salt] | 0.5 mg/L | 0.5 mg/L | – | 0.5 mg/L | 1 mg/L | 8 mg/L | 8 mg/L | 32 mg/L | – | 0.5 mg/L | 1 mg/L | 0.5 mg/L | 0.5 mg/L | 1 mg/L | – | – | – | –
CCn1cc(C(=O)O)c(=O)c2cc(F)c(N3CC[N+](C)(CC4=C(C(=O)O)N5C(=O)[C@@H](NC(=O)/C(=N\OC)c6csc(N)n6)[C@H]5SC4)CC3)cc21 [Compound D, [6R-[6α,7β(Z)]]-1-[[7-[[(2-amino-4-thiazolyl)(methoxyimino)acetyl]amino]-2-carboxy-8-oxo-5-thia-1-azabicyclo[4.2.0]-oct-2-en-3-yl]methyl]-4-(3-carboxy-1-ethyl-6-fluoro-1,4-dihydro-4-oxo-7-quinolinyl)-1-methylpiperazinium iodide] | 0.5 mg/L | 0.5 mg/L | 1 mg/L | 1 mg/L | 0.5 mg/L | 8 mg/L | 32 mg/L | 32 mg/L | 0.063 mg/L | 2 mg/L | 4 mg/L | 4 mg/L | – | – | – | – | – | –
CC(C)(O/N=C(\C(=O)N[C@@H]1C(=O)N2C(C(=O)[O-])=C(C[N+]3(C)CCN(c4c(F)cc5c(=O)c(C(=O)O)cn(CCF)c5c4F)CC3)CS[C@H]12)c1csc(N)n1)C(=O)O [Compound C, [6R-[6α,7β(Z)]]-1-[[7-[[[(2-amino-4-thiazolyl)[1-(1-carboxy-1-methyl)ethoxy]imino]acetyl]amino]-8-oxo-5-thia-1-azabicyclo-[4.2.0]oct-2-en-3-yl]methyl]-4-[3-carboxy-1-(2-fluoroethyl)-6,8-difluoro-1,4-dihydro-4-oxoquinolin-7-yl]-1-methylpiperazinium hydroxide inner salt monosodium salt] | – | 0.5 mg/L | – | 2 mg/L | – | 8 mg/L | 8 mg/L | 32 mg/L | – | 8 mg/L | – | – | 0.5 mg/L | 1 mg/L | 4 mg/L | 0.25 mg/L | 0.5 mg/L | 4 mg/L
